Measured values reported in ChEMBL document CHEMBL1146232, “Discovery of N-{(1S,2S)-2-(3-cyanophenyl)- 3-[4-(2-[18F]fluoroethoxy)phenyl]-1-methylpropyl}- 2-methyl-2-[(5-methylpyridin-2-yl)oxy]propanamide, a cannabinoid-1 receptor positron emission tomography tracer suitable for clinical use” (J Med Chem, 2007).
pIC50: −log10 of the molar value.

What was measured:
[1] = biological target: Cannabinoid receptor 1 (Homo sapiens, UniProt P21554); test: Displacement of [3H]CP-55940 from human recombinant CB1R expressed in CHO cells; type: cell-based
[2] = Distribution coefficient, log D at pH 7.3; type: physicochemical; conditions: octanol/water
[3] = Ratio of drug level in brain to plasma in Sprague-Dawley rat at 1 mg/kg, iv after 15 mins; type: ADME, organism-based; set-up: dose 1 mg/kg, route intravenous; conditions: brain and plasma
[4] = Clearance in Sprague-Dawley rat at 1 mg/kg, iv; type: ADME, organism-based; set-up: dose 1 mg/kg, route intravenous; conditions: in vivo
[5] = Half life in Sprague-Dawley rat at 1 mg/kg, iv; type: ADME, organism-based; set-up: dose 1 mg/kg, route intravenous; conditions: in vivo
[6] = biological target: Cannabinoid receptor 2 (Homo sapiens, UniProt P34972); test: Agonist activity at human CB2R; type: functional
Cannabinoid receptor 2, sequence (P34972 whole entry): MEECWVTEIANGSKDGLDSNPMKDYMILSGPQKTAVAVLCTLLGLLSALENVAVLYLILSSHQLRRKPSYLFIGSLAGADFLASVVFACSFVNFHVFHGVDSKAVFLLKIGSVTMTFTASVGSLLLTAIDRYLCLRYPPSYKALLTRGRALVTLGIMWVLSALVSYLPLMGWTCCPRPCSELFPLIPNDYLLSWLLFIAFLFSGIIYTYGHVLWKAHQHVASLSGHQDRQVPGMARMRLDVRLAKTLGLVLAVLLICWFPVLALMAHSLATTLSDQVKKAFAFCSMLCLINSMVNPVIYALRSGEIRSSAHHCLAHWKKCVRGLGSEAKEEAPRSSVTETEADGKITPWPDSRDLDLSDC

Cannabinoid receptor 1, sequence (P21554 whole entry): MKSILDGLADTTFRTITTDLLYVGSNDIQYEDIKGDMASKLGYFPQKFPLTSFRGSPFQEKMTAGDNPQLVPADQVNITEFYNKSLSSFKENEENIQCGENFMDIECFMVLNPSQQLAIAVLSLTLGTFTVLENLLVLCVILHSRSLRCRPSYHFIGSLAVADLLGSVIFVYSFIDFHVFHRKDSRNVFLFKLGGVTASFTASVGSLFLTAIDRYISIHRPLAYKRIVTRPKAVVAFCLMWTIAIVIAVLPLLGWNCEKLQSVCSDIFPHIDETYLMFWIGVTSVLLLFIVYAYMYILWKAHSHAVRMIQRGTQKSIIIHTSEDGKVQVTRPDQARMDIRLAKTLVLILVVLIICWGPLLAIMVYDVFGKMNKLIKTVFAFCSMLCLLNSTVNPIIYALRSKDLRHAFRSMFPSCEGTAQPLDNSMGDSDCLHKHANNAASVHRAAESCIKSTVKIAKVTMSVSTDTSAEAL

Row | pIC50 [1] | logD [2] | Structure (SMILES) | Kp at 0.25 h [3] | clearance [4] [mL/min/kg] | half-life [5] [h] | pIC50 [6]
1 | 9.05 | 4.4 | C[C@H](NC(=O)C(C)(C)Oc1ccc(C(F)(F)F)cn1)[C@@H](Cc1ccc(OCCF)cc1)c1cccc(C#N)c1 |  |  |  | 
2 | 9.10 | 4.2 | C[C@H](NC(=O)C(C)(C)Oc1ccc(Cl)cn1)[C@@H](Cc1ccc(OCCF)cc1)c1cccc(C#N)c1 |  |  |  | 
3 | 9.05 | 4.8 | COc1ccc(C[C@@H](c2cc(F)cc(C#N)c2)[C@H](C)NC(=O)C(C)(C)Oc2ccc(C(F)(F)F)cn2)cc1 |  |  |  | 
4 | 8.70 | 4.7 | C[C@H](NC(=O)C(C)(C)Oc1ccc(C(F)(F)F)cn1)[C@@H](Cc1ccc(OCF)cc1)c1cc(F)cc(C#N)c1 |  |  |  | 
5 | 8.89 | 3.7 | C[C@H](NC(=O)C(C)(C)Oc1ccccn1)[C@@H](Cc1ccc(OCCF)cc1)c1cccc(C#N)c1 |  |  |  | 
6 | 8.74 | 3.3 | C[C@H](NC(=O)C(C)(C)Oc1ccc(C#N)cn1)[C@@H](Cc1ccc(OCCF)cc1)c1cccc(C#N)c1 |  |  |  | 
7 |  | 5.2 | C[C@H](NC(=O)C(C)(C)Oc1ccc(C(F)(F)F)cn1)[C@@H](Cc1ccc(Cl)cc1)c1cccc(C#N)c1 [TARANABANT] |  |  |  | 

Second part, the compound before the results:

Row | Structure (SMILES) | pIC50 [1] | logD [2] | Kp at 0.25 h [3] | clearance [4] [mL/min/kg] | half-life [5] [h] | pIC50 [6]
8 | Cc1ccnc(OC(C)(C)C(=O)N[C@@H](C)[C@@H](Cc2ccc(OCCF)cc2)c2cccc(C#N)c2)c1 | 9.33 | 4.1 |  |  |  | 
9 | Cc1ccc(OC(C)(C)C(=O)N[C@@H](C)[C@@H](Cc2ccc(OCCF)cc2)c2cccc(C#N)c2)nc1 | 9.15 | 4 | 0.5 | 81 | 1.4 | 7.36
10 | C[C@H](NC(=O)C(C)(C)Oc1cc(C(F)(F)F)ncn1)[C@@H](Cc1ccc(OCCF)cc1)c1cccc(C#N)c1 | 8.74 | 3.9 |  |  |  | 
11 | Cc1ccc(OC(C)(C)C(=O)N[C@@H](C)[C@@H](Cc2ccc(OCC[18F])cc2)c2cccc(C#N)c2)nc1 | 9.14 | 4 |  |  |  | 
12 | C[C@H](NC(=O)C(C)(C)Oc1ccc(C(F)(F)F)cn1)[C@@H](Cc1ccc(OCCF)cc1)c1cc(F)cc(C#N)c1 | 9.05 | 4.6 |  |  |  | 
13 | C[C@H](NC(=O)C(C)(C)Oc1cc(C(F)(F)F)ccn1)[C@@H](Cc1ccc(OCCF)cc1)c1cccc(C#N)c1 | 9.11 | 4.6 |  |  |  | 
